Test results from PubChem BioAssay AID2060511 (Molecular Pharmacology Branch, DTP, NCI, 2025).

Tested on: 422866-222-R5-J1-PDC spheroids with HUVEC/MSC, viability
Assay: Anticancer human tumor 422866-222-R5-J1-PDC patient-derived pancreatic adenocarcinoma cell line growth inhibition [GQUAD]
Details: for IC50: curve of first compound; for viability, T/C: stronger effect = lower value
Summary of the method: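 Tumor cells were grown as complex spheroids with HUVEC endothelial cells and mesenchymal stem cells as stroma. G-quadruplex stabilizers were combined with targeted agents over half-log dilutions from near the clinical Cmax, or from 10 microM.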

[1] = second compound 0.0316 µM, first compound 0.000999 µM
[2] = second compound 0.0316 µM, first compound 0.00316 µM
[3] = second compound 0.0316 µM, first compound 0.00999 µM
[4] = second compound 0.0316 µM, first compound 0.0316 µM
[5] = second compound 0.0316 µM, first compound 0.0999 µM
[6] = second compound 0.0316 µM, first compound 0.316 µM
[7] = second compound 0.1 µM, first compound 0.000999 µM
[8] = second compound 0.1 µM, first compound 0.00316 µM
[9] = second compound 0.1 µM, first compound 0.00999 µM
[10] = second compound 0.1 µM, first compound 0.0316 µM
[11] = second compound 0.1 µM, first compound 0.0999 µM
[12] = second compound 0.1 µM, first compound 0.316 µM
[13] = second compound 0.316 µM, first compound 0.000999 µM
[14] = second compound 0.316 µM, first compound 0.00316 µM
[15] = second compound 0.316 µM, first compound 0.00999 µM
[16] = second compound 0.316 µM, first compound 0.0316 µM
[17] = second compound 0.316 µM, first compound 0.0999 µM
[18] = second compound 0.316 µM, first compound 0.316 µM
[19] = second compound 1 µM, first compound 0.000999 µM
[20] = second compound 1 µM, first compound 0.00316 µM
[21] = second compound 1 µM, first compound 0.00999 µM
[22] = second compound 1 µM, first compound 0.0316 µM
[23] = second compound 1 µM, first compound 0.0999 µM
[24] = second compound 1 µM, first compound 0.316 µM
[25] = second compound 3.16 µM, first compound 0.000999 µM
[26] = second compound 3.16 µM, first compound 0.00316 µM
[27] = second compound 3.16 µM, first compound 0.00999 µM
[28] = second compound 3.16 µM, first compound 0.0316 µM
[29] = second compound 3.16 µM, first compound 0.0999 µM
[30] = second compound 3.16 µM, first compound 0.316 µM
[31] = second compound 10 µM, first compound 0.000999 µM
[32] = second compound 10 µM, first compound 0.00316 µM
[33] = second compound 10 µM, first compound 0.00999 µM
[34] = second compound 10 µM, first compound 0.0316 µM
[35] = second compound 10 µM, first compound 0.0999 µM
[36] = second compound 10 µM, first compound 0.316 µM
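Also: spheroids exposed to compounds for seven days before reading.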
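For viability, T/C in this document: percent viability relative to DMSO vehicle control taken as 100%.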

For `Cc1[nH]c2ccccc2c1CCNCc1ccc(/C=C/C(=O)NO)cc1` + CN(C)c1ccc(Nc2c3ccc(NC(=O)CCN4CCCC4)cc3nc3cc(NC(=O)CCN4CCCC4)ccc23)cc1, the IC50 (second compound 0.0316 µM) was > 316 nM, the IC50 (second compound 0.1 µM) was > 316 nM and the IC50 (second compound 0.316 µM) was > 316 nM. The IC50 (second compound 1 µM) was > 316 nM, the IC50 (second compound 3.16 µM) was > 316 nM and the IC50 (second compound 10 µM) was > 316 nM. It also gave a viability, T/C [1] of 118%, a viability, T/C [2] of 98.7% and a viability, T/C [3] of 116%. For the same molecule, the viability, T/C [4] was 83.2%, the viability, T/C [5] was 54.3% and the viability, T/C [6] was 56.8%. For the same molecule, the viability, T/C [7] was 98.3%, the viability, T/C [8] was 102% and the viability, T/C [9] was 119%. For the same molecule, the viability, T/C [10] was 89.9%, the viability, T/C [11] was 73.5% and the viability, T/C [12] was 61.5%. It also gave a viability, T/C [13] of 105%, a viability, T/C [14] of 102% and a viability, T/C [15] of 98.7%. The viability, T/C [16] was 76%, the viability, T/C [17] was 69.4% and the viability, T/C [18] was 57%. It also gave a viability, T/C [19] of 77.3%, a viability, T/C [20] of 91.9% and a viability, T/C [21] of 131%. It also gave a viability, T/C [22] of 112%, a viability, T/C [23] of 63.3% and a viability, T/C [24] of 52%. It also gave a viability, T/C [25] of 89.5%, a viability, T/C [26] of 97.3% and a viability, T/C [27] of 102%. It also gave a viability, T/C [28] of 103%, a viability, T/C [29] of 80.4% and a viability, T/C [30] of 56.4%. For the same molecule, the viability, T/C [31] was 96%, the viability, T/C [32] was 95.4% and the viability, T/C [33] was 98.8%. It also gave a viability, T/C [34] of 109%, a viability, T/C [35] of 75.2% and a viability, T/C [36] of 53.7%.
In the case of `CCc1c2c(nc3ccc(O)cc13)-c1cc3c(c(=O)n1C2)COC(=O)[C@]3(O)CC` + Cc1cnc(CNC(=O)c2c(=O)c3ccc(N4CCCN(C)CC4)nc3n3c2sc2ccccc23)cn1, the IC50 (second compound 0.0316 µM) is reported as 1.87 nM, the IC50 (second compound 0.1 µM) is reported as 15.9 nM and the IC50 (second compound 0.316 µM) is reported as 25.5 nM. The IC50 (second compound 1 µM) was 73.2 nM, the IC50 (second compound 3.16 µM) was 62.2 nM and the IC50 (second compound 10 µM) was 106 nM. It also gave a viability, T/C [1] of 56.2%, a viability, T/C [2] of 42.2% and a viability, T/C [3] of 44.1%. The viability, T/C [4] was 41.3%, the viability, T/C [5] was 37.7% and the viability, T/C [6] was 24.5%. The viability, T/C [7] was 66.8%, the viability, T/C [8] was 59.2% and the viability, T/C [9] was 50.4%. For the same molecule, the viability, T/C [10] was 46.3%, the viability, T/C [11] was 44.9% and the viability, T/C [12] was 34.8%. For the same molecule, the viability, T/C [13] was 75.4%, the viability, T/C [14] was 63.1% and the viability, T/C [15] was 56.4%. It also gave a viability, T/C [16] of 47.7%, a viability, T/C [17] of 46.6% and a viability, T/C [18] of 30.2%. The viability, T/C [19] was 73.4%, the viability, T/C [20] was 76% and the viability, T/C [21] was 59.6%. The viability, T/C [22] was 59.4%, the viability, T/C [23] was 49.3% and the viability, T/C [24] was 28.2%. For the same molecule, the viability, T/C [25] was 70.2%, the viability, T/C [26] was 77.4% and the viability, T/C [27] was 62.5%. The viability, T/C [28] was 55.7%, the viability, T/C [29] was 46.5% and the viability, T/C [30] was 26.3%. For the same molecule, the viability, T/C [31] was 72.5%, the viability, T/C [32] was 74.8% and the viability, T/C [33] was 68%. For the same molecule, the viability, T/C [34] was 60.2%, the viability, T/C [35] was 54.9% and the viability, T/C [36] was 22.1%.
For `O=C(c1cc(Cc2n[nH]c(=O)c3ccccc23)ccc1F)N1CCN(C(=O)C2CC2)CC1` + CN(C)c1ccc(Nc2c3ccc(NC(=O)CCN4CCCC4)cc3nc3cc(NC(=O)CCN4CCCC4)ccc23)cc1, the IC50 (second compound 0.0316 µM) was > 10000 nM, the IC50 (second compound 0.1 µM) was > 10000 nM and the IC50 (second compound 0.316 µM) was > 10000 nM. For the same molecule, the IC50 (second compound 1 µM) was > 10000 nM, the IC50 (second compound 3.16 µM) was > 10000 nM and the IC50 (second compound 10 µM) was > 10000 nM. It also gave a viability, T/C [4] of 108%, a viability, T/C (second compound 0.0316 µM, first compound 0.1 µM) of 95.8% and a viability, T/C [6] of 96.3%. For the same molecule, the viability, T/C (second compound 0.0316 µM, first compound 1 µM) was 99.7%, the viability, T/C (second compound 0.0316 µM, first compound 3.16 µM) was 75.7% and the viability, T/C (second compound 0.0316 µM, first compound 10 µM) was 70.1%. For the same molecule, the viability, T/C [10] was 90.3%, the viability, T/C (second compound 0.1 µM, first compound 0.1 µM) was 95.3% and the viability, T/C [12] was 84.9%. It also gave a viability, T/C (second compound 0.1 µM, first compound 1 µM) of 83%, a viability, T/C (second compound 0.1 µM, first compound 3.16 µM) of 93.2% and a viability, T/C (second compound 0.1 µM, first compound 10 µM) of 67.5%. It also gave a viability, T/C [16] of 86.4%, a viability, T/C (second compound 0.316 µM, first compound 0.1 µM) of 107% and a viability, T/C [18] of 79.7%. It also gave a viability, T/C (second compound 0.316 µM, first compound 1 µM) of 83.3%, a viability, T/C (second compound 0.316 µM, first compound 3.16 µM) of 79.8% and a viability, T/C (second compound 0.316 µM, first compound 10 µM) of 70.4%. The viability, T/C [22] was 80%, the viability, T/C (second compound 1 µM, first compound 0.1 µM) was 79.3% and the viability, T/C [24] was 78.3%. For the same molecule, the viability, T/C (second compound 1 µM, first compound 1 µM) was 77.4%, the viability, T/C (second compound 1 µM, first compound 3.16 µM) was 74.5% and the viability, T/C (second compound 1 µM, first compound 10 µM) was 67.5%. It also gave a viability, T/C [28] of 87%, a viability, T/C (second compound 3.16 µM, first compound 0.1 µM) of 92.3% and a viability, T/C [30] of 86.5%. For the same molecule, the viability, T/C (second compound 3.16 µM, first compound 1 µM) was 85.7%, the viability, T/C (second compound 3.16 µM, first compound 3.16 µM) was 85% and the viability, T/C (second compound 3.16 µM, first compound 10 µM) was 80.6%. It also gave a viability, T/C [34] of 81.8%, a viability, T/C (second compound 10 µM, first compound 0.1 µM) of 83.6% and a viability, T/C [36] of 87.4%. It also gave a viability, T/C (second compound 10 µM, first compound 1 µM) of 79.5%, a viability, T/C (second compound 10 µM, first compound 3.16 µM) of 83.6% and a viability, T/C (second compound 10 µM, first compound 10 µM) of 79.9%.
